Measurements taken from paper PMC4884984, “Identification of approved and investigational drugs that inhibit hypoxia-inducible factor-1 signaling” (Oncotarget, 2016).
Read-outs that look alike come from different tables or passages of the source.

Legend:
HIF-1α–NanoLuc = HIF-1α–NanoLuc reporter gene assay (qHTS primary and confirmatory screens); type: cell-based, human
[1] = test system: hypoxia response element-beta-lactamase (HRE–bla); experiment: HRE-bla reporter gene assay in ME-180 cells; type: cell-based, human; conditions: Table S7, confirmatory screen; for Emax: read-out: HRE–bla confirmatory Efficacy; for IC50: read-out: HRE–bla confirmatory IC50
Description: (§1) Cell culture of HRE–bla ME-180 cells (Cat. No. K1644, Life Technologies) and HRE–bla assay were conducted according to a reported protocol [6]. […] The fluorescence signals (460/25 nm and 530/20 nm) of CCF4 and luminescence signals of CellTiter-Glo were acquired on an Envision and a ViewLux plate readers (Perkin Elmer), respectively.

[2] = test system: HIF-1α–NanoLuc HCT116 cells; experiment: Viability (Luc): CellTiter-Glo counter screen in HIF-1α–NanoLuc cells; type: cell-based, human; conditions: for Viability (Luc) confirmatory IC50: Table S7, 1% O2, 18 h
HRE–bla ME-180 cells = experiment: Viability (BLA): CellTiter-Glo counter screen in HRE–bla cells; type: cell-based, human; conditions: for IC50 / Emax: Table S7, confirmatory screen; for IC50: 1% O2, 18 h; for Viability (BLA) confirmatory IC50: Table S7, 1% O2, 18 h; for Emax: read-out: Viability (BLA) confirmatory Efficacy
Description: as §1

HCT116 cells = experiment: Cancer cell proliferation assay, HCT116; type: cell-based, human; conditions: Homo sapiens, HCT-116, 72 h, Table S8, 3 days
Description: (§2) HCT116 and ME-180 cells (ATCC) were cultured according to manufacturer's instructions. […] Cell proliferation was quantified as relative luminescence unit (RLU) values using CellTiter-Glo viability assay reagent on a ViewLux plate reader (Perkin Elmer).

ME-180 cells = experiment: Cancer cell proliferation assay, ME-180; type: cell-based; conditions: Homo sapiens, ME-180, 72 h, Table S8, 3 days
Description: as §2

[3] = Homo sapiens, read-out: HIF-1α–NanoLuc confirmatory Efficacy
[4] = Homo sapiens, read-out: HIF-1α–NanoLuc confirmatory IC50
[5] = Homo sapiens, read-out: HIF-1α–NanoLuc primary Efficacy
[6] = Homo sapiens, Table S2, validation, read-out: Pathway inhibitors (validation) HIF-1α–NanoLuc Activity Efficacy
[7] = Homo sapiens, Table S2, validation, read-out: Pathway inhibitors (validation) HIF-1α–NanoLuc Activity IC50
[8] = Homo sapiens, Table S7, confirmatory screen, read-out: HIF-1α–NanoLuc confirmatory Efficacy
[9] = Homo sapiens, Table S2, primary screen, read-out: Pathway inhibitors (primary screen) HIF-1α–NanoLuc Activity Efficacy
[10] = Homo sapiens, Table S2, primary screen, read-out: Pathway inhibitors (primary screen) HIF-1α–NanoLuc Activity IC50
[11] = Homo sapiens, Table S7, primary screen, read-out: HIF-1α–NanoLuc primary Efficacy
[12] = Homo sapiens, Table S7, primary screen, read-out: HIF-1α–NanoLuc primary IC50
[13] = Homo sapiens, Table S1, primary screen, hypoxia 1% O2, 18 h, read-out: IC50 (primary screen, HIF-1α–NanoLuc assay)
[14] = Homo sapiens, Table S1, primary screen, read-out: Efficacy (primary screen, HIF-1α–NanoLuc assay)
[15] = Homo sapiens, Table S7, confirmatory screen, read-out: HIF-1α–NanoLuc confirmatory IC50

| SMILES | Emax ([1]; Homo sapiens, ME-180) [%] | IC50 ([1]; Homo sapiens, ME-180) [µM] | Viability (Luc) confirmatory IC50 [2] | IC50 (HRE–bla ME-180 cells; Homo sapiens, ME-180) [µM] | Emax (HIF-1α–NanoLuc; [6]) [%] | IC50 (HIF-1α–NanoLuc; [7]) [µM] | Emax (HIF-1α–NanoLuc; [8]) [%] | Viability (BLA) confirmatory IC50 (HRE–bla ME-180 cells) | Emax (HIF-1α–NanoLuc; [11]) [%] | IC50 (HIF-1α–NanoLuc; [12]) [µM] | IC50 (HIF-1α–NanoLuc; [15]) [µM] | also measured |
| --- | --- | --- | --- | --- | --- | --- | --- | --- | --- | --- | --- | --- |
| C[C@@H]1C[C@@H]([C@H](O)CC2CC(=O)NC(=O)C2)C(=O)[C@@H](C)C1 [Cycloheximide] | 92 ± 2 | 1.06 ± 0.12 | Inactive | 8.34 ± 4.61 |  |  |  |  |  |  |  | Effect on HIF-1α–NanoLuc level / luciferase activity, in words (HIF-1α–NanoLuc): showed reduced protein turnover and decreased luciferase signal; IC50 (HIF-1α–NanoLuc; Homo sapiens, 18 h, read-out: IC50 (primary screen, HIF-1α–NanoLuc assay)): 0.24 µM; Emax (HIF-1α–NanoLuc; Homo sapiens, read-out: Efficacy (primary screen, HIF-1α–NanoLuc assay)): 92%; Emax (HIF-1α–NanoLuc; [3]): 104 ± 5%; IC50 (HIF-1α–NanoLuc; [4]): 0.53 µM; Emax (HIF-1α–NanoLuc; [5]): 92% |
| CC(C)(C)c1nc(-c2cccc(NS(=O)(=O)c3c(F)cccc3F)c2F)c(-c2ccnc(N)n2)s1 [Dabrafenib] | 43 ± 1 | 6.4 ± 1.55 | Inactive |  | 26 ± 13 | 0.47 ± 0.24 | 26 ± 13 | Inactive |  |  |  |  |
| Cc1nc(Nc2ncc(C(=O)Nc3c(C)cccc3Cl)s2)cc(N2CCN(CCO)CC2)n1 [Dasatinib] | 52 ± 11 | 0.03 ± 0.02 | Inactive |  | 46 ± 3 | 23.6 ± 8.59 | 46 ± 3 | Inactive | 56 | 21.1 |  | Emax (HIF-1α–NanoLuc; [9]): 82%; IC50 (HIF-1α–NanoLuc; [10]): 0.94 µM |
| CCOC(=O)C1(c2ccccc2)CCN(CCC(C#N)(c2ccccc2)c2ccccc2)CC1 [Diphenoxylate] | 60 ± 4 | 7.8 ± 0.53 | Inactive |  |  |  |  | Inactive |  |  |  | Emax (HIF-1α–NanoLuc; [3]): 104 ± 12%; IC50 (HIF-1α–NanoLuc; [4]): 13.7 ± 0.93 µM; Emax (HIF-1α–NanoLuc; [5]): 82%; IC50 (HIF-1α–NanoLuc; Homo sapiens, read-out: HIF-1α–NanoLuc primary IC50): 16.8 µM |
| C#Cc1cccc(Nc2ncnc3cc(OCCOC)c(OCCOC)cc23)c1 [Erlotinib] | 59 ± 15 | 7.95 ± 3.47 | Inactive |  | 35 ± 6 | 6.64 ± 2.42 | 35 ± 6 | Inactive | 33 |  |  | IC50 (HIF-1α–NanoLuc; [13]): 2.66 µM; Emax (HIF-1α–NanoLuc; [14]): 33%; Emax (HIF-1α–NanoLuc; [9]): 33% |
| CCOc1ccc(Cc2nccc3cc(OCC)c(OCC)cc23)cc1OCC [Ethaverine] |  |  | Inactive |  |  |  | 96 ± 2 | Inactive | 67 | 6.68 | 9.39 ± 1.08 | HRE–bla confirmatory IC50 [1]: Inactive |
| c1ccc(CCNc2nc(-c3ccccc3)cs2)cc1 [Fanetizole] |  |  | Inactive |  |  |  | 28 ± 5 | Inactive | 123 | 26.6 | 16.4 ± 3.97 | HRE–bla confirmatory IC50 [1]: Inactive |
| COc1cc2ncnc(Nc3ccc(F)c(Cl)c3)c2cc1OCCCN1CCOCC1 [Gefitinib] | 45 ± 14 |  | Inactive |  |  |  | 31 ± 3 | Inactive | 86 |  |  | Emax (HIF-1α–NanoLuc; [14]): 86% |
| CS(=O)(=O)CCNCc1ccc(-c2ccc3ncnc(Nc4ccc(OCc5cccc(F)c5)c(Cl)c4)c3c2)o1 [Lapatinib] | 78 ± 6 | 11.4 ± 0.75 | Inactive | 20.4 ± 1.33 | 50 ± 6 | 20.2 ± 1.31 | 50 ± 6 |  | 56 | 33.5 |  |  |
| CCCCCCCCCCCCCC[N+](C)(C)C.[Br-] [MitMAB] |  |  | Inactive |  |  |  |  |  |  |  |  | HIF-1α–NanoLuc confirmatory Efficacy (HIF-1α–NanoLuc; Table S7, confirmatory screen): 99 ± 9%; IC50 (HIF-1α–NanoLuc; Table S7, confirmatory screen, read-out: HIF-1α–NanoLuc confirmatory IC50): 15.2 ± 7.16 µM; HIF-1α–NanoLuc primary Efficacy (HIF-1α–NanoLuc; Table S7, primary screen): 129%; IC50 (HIF-1α–NanoLuc; Table S7, primary screen, read-out: HIF-1α–NanoLuc primary IC50): 2.11 µM; HRE–bla confirmatory Efficacy [1]: 100 ± 5%; IC50 [1]: 5.73 ± 1.88 µM; IC50 (HRE–bla ME-180 cells): 18.2 ± 2.51 µM |
| CC(=O)Oc1ccccc1C(=O)Nc1ncc([N+](=O)[O-])s1 [Nitazoxanide] | 88 ± 1 | 3 ± 0.34 |  | 3 ± 0.34 |  |  | 101 ± 14 |  | 150 | 9.44 | 17.3 ± 1.17 | IC50 ([2]; Homo sapiens, HCT-116, Table S7, confirmatory screen, 1% O2, 18 h): 9.39 ± 1.08 µM |
| C[C@@H]1O[C@@H](O[C@H]2C[C@@H](O)[C@]3(CO)[C@H]4[C@H](O)C[C@]5(C)[C@@H](C6=CC(=O)OC6)CC[C@]5(O)[C@@H]4CC[C@]3(O)C2)[C@H](O)[C@H](O)[C@H]1O [Ouabain] | 94 ± 4 | 0.08 ± 0.01 |  | 0.13 |  |  |  |  |  |  |  | Emax (HCT116 cells; read-out: HCT116 3-Day Viability Efficacy): 73 ± 13%; IC50 (HCT116 cells; read-out: HCT116 3-Day Viability IC50): 0.63 ± 0.37 µM; Emax (ME-180 cells; read-out: ME-180 3-Day Viability Efficacy): 98 ± 4%; IC50 (ME-180 cells; read-out: ME-180 3-Day Viability IC50): 0.13 ± 0.01 µM |
| CC(=O)Oc1ccc(C2(c3ccc(OC(C)=O)cc3)C(=O)Nc3ccccc32)cc1 [Oxyphenisatin acetate] | 92 ± 3 | 0.19 ± 0.01 | Inactive | 0.2 ± 0.01 |  |  | 55 ± 9 |  | 84 | 1.33 | 2.47 ± 0.79 |  |
| CNC(=O)c1cc(Oc2ccc(NC(=O)Nc3ccc(Cl)c(C(F)(F)F)c3)cc2)ccn1 [Sorafenib] | 98 ± 7 | 17.6 ± 8.6 | Inactive |  | 100 ± 6 | 23.6 ± 2.71 | 100 ± 6 | Inactive | 156 |  |  | IC50 (HIF-1α–NanoLuc; [13]): 13.3 µM; Emax (HIF-1α–NanoLuc; [14]): 156%; Emax (HIF-1α–NanoLuc; [9]): 46%; IC50 (HIF-1α–NanoLuc; [10]): 1.5 µM |
| CO[C@H]1C[C@@H]2CC[C@@H](C)[C@@](O)(O2)C(=O)C(=O)N2CCCC[C@H]2C(=O)O[C@H]([C@H](C)C[C@@H]2CC[C@@H](OC(=O)C(C)(CO)CO)[C@H](OC)C2)CC(=O)[C@H](C)/C=C(\C)[C@@H](O)[C@@H](OC)C(=O)[C@H](C)C[C@H](C)/C=C/C=C/C=C/1C [Temsirolimus] | 86 ± 7 | 15.9 ± 6.91 | Inactive | 27.7 ± 1.87 |  |  | 92 ± 8 |  |  |  | 34.5 ± 2.34 | Emax (HRE–bla ME-180 cells; Homo sapiens, ME-180): 116 ± 11% |
| CC(/C=C/C(=O)NO)=C\[C@@H](C)C(=O)c1ccc(N(C)C)cc1 [Trichostatin A] |  |  | Inactive |  |  |  |  |  |  |  |  | Pathway inhibitors (validation) HIF-1α–NanoLuc Activity Efficacy (HIF-1α–NanoLuc; Table S2, validation): 55 ± 4%; IC50 (HIF-1α–NanoLuc; Table S2, validation, read-out: Pathway inhibitors (validation) HIF-1α–NanoLuc Activity IC50): 0.67 ± 0.26 µM; HIF-1α–NanoLuc confirmatory Efficacy (HIF-1α–NanoLuc; Table S7, confirmatory screen): 55 ± 4%; HRE–bla confirmatory Efficacy [1]: 92 ± 11%; IC50 [1]: 12.2 ± 3.9 µM; IC50 (HRE–bla ME-180 cells): 9.68 ± 3.79 µM; Emax (HRE–bla ME-180 cells): 43 ± 13% |
